In ChEMBL document CHEMBL4308841, “Synthesis, in vitro antiproliferative activity, and kinase inhibitory effects of pyrazole-containing diarylureas and diarylamides” (Eur J Med Chem, 2018):

Experiments:
[1] = system: NCI-H522; test: Growth inhibition of human NCI-H522 cells assessed as cell growth at 10 uM incubated for 48 hrs by sulforhodamine B assay relative to control; format: functional; conditions: NCI-H522, 48 h, read-out: Activity
[2] = system: HCT-116; test: Growth inhibition of human HCT116 cells incubated for 48 hrs by sulforhodamine B assay; format: functional, cell-based; conditions: HCT-116, 48 h
[3] = system: OVCAR-4; test: Growth inhibition of human OVCAR4 cells incubated for 48 hrs by sulforhodamine B assay; format: functional, cell-based; conditions: OVCAR-4, 48 h
[4] = system: SN12C; test: Growth inhibition of human SN12C cells incubated for 48 hrs by sulforhodamine B assay; format: functional, cell-based
[5] = system: HOP-62; test: Growth inhibition of human HOP62 cells assessed as cell growth at 0.01 uM incubated for 48 hrs by sulforhodamine B assay relative to control; format: functional; conditions: HOP-62, 48 h, read-out: Activity
[6] = system: NCI-H522; test: Growth inhibition of human NCI-H522 cells assessed as cell growth at 0.01 uM incubated for 48 hrs by sulforhodamine B assay relative to control; format: functional; conditions: NCI-H522, 48 h, read-out: Activity
[7] = system: M14; test: Growth inhibition of human M14 cells assessed as cell growth at 0.01 uM incubated for 48 hrs by sulforhodamine B assay relative to control; format: functional; conditions: M14, 48 h, read-out: Activity
[8] = system: SK-MEL-2; test: Growth inhibition of human SK-MEL-2 cells assessed as cell growth at 0.01 uM incubated for 48 hrs by sulforhodamine B assay relative to control; format: functional; conditions: SK-MEL-2, 48 h, read-out: Activity
[9] = system: MCF7; test: Growth inhibition of human MCF7 cells assessed as cell growth at 0.01 uM incubated for 48 hrs by sulforhodamine B assay relative to control; format: functional; conditions: MCF7, 48 h, read-out: Activity
[10] = system: K562; test: Growth inhibition of human K562 cells assessed as cell growth at 0.1 uM incubated for 48 hrs by sulforhodamine B assay relative to control; format: functional; conditions: K562, 48 h, read-out: Activity
[11] = system: NCI-H226; test: Growth inhibition of human NCI-H226 cells assessed as cell growth at 0.1 uM incubated for 48 hrs by sulforhodamine B assay relative to control; format: functional; conditions: NCI-H226, 48 h, read-out: Activity
[12] = system: SNB-19; test: Growth inhibition of human SNB19 cells assessed as cell growth at 0.1 uM incubated for 48 hrs by sulforhodamine B assay relative to control; format: functional; conditions: SNB-19, 48 h, read-out: Activity
[13] = system: OVCAR-5; test: Growth inhibition of human OVCAR5 cells assessed as cell growth at 0.1 uM incubated for 48 hrs by sulforhodamine B assay relative to control; format: functional; conditions: OVCAR-5, 48 h, read-out: Activity
[14] = system: OVCAR-8; test: Growth inhibition of human OVCAR8 cells assessed as cell growth at 0.1 uM incubated for 48 hrs by sulforhodamine B assay relative to control; format: functional; conditions: OVCAR-8, 48 h, read-out: Activity
[15] = system: NCI-H460; test: Growth inhibition of human NCI-H460 cells assessed as cell growth at 1 uM incubated for 48 hrs by sulforhodamine B assay relative to control; format: functional; conditions: NCI-H460, 48 h, read-out: Activity
[16] = system: COLO 205; test: Growth inhibition of human COLO205 cells assessed as cell growth at 1 uM incubated for 48 hrs by sulforhodamine B assay relative to control; format: functional; conditions: COLO 205, 48 h, read-out: Activity
[17] = system: HT-29; test: Growth inhibition of human HT-29 cells assessed as cell growth at 1 uM incubated for 48 hrs by sulforhodamine B assay relative to control; format: functional; conditions: HT-29, 48 h, read-out: Activity
[18] = system: SK-MEL-5; test: Growth inhibition of human SK-MEL-5 cells assessed as cell growth at 1 uM incubated for 48 hrs by sulforhodamine B assay relative to control; format: functional; conditions: SK-MEL-5, 48 h, read-out: Activity
[19] = system: OVCAR-3; test: Growth inhibition of human OVCAR3 cells assessed as cell growth at 1 uM incubated for 48 hrs by sulforhodamine B assay relative to control; format: functional; conditions: OVCAR-3, 48 h, read-out: Activity
[20] = system: OVCAR-4; test: Growth inhibition of human OVCAR4 cells assessed as cell growth at 1 uM incubated for 48 hrs by sulforhodamine B assay relative to control; format: functional; conditions: OVCAR-4, 48 h, read-out: Activity
[21] = system: OVCAR-8; test: Growth inhibition of human OVCAR8 cells assessed as cell growth at 1 uM incubated for 48 hrs by sulforhodamine B assay relative to control; format: functional; conditions: OVCAR-8, 48 h, read-out: Activity
[22] = system: SK-OV-3; test: Growth inhibition of human SKOV3 cells assessed as cell growth at 1 uM incubated for 48 hrs by sulforhodamine B assay relative to control; format: functional; conditions: SK-OV-3, 48 h, read-out: Activity
[23] = system: T47D; test: Growth inhibition of human T47D cells assessed as cell growth at 1 uM incubated for 48 hrs by sulforhodamine B assay relative to control; format: functional; conditions: read-out: Activity
[24] = system: SR; test: Growth inhibition of human SR cells assessed as cell growth at 100 uM incubated for 48 hrs by sulforhodamine B assay relative to control; format: functional; conditions: read-out: Activity
[25] = system: NCI-H23; test: Growth inhibition of human NCI-H23 cells assessed as cell growth at 100 uM incubated for 48 hrs by sulforhodamine B assay relative to control; format: functional; conditions: NCI-H23, 48 h, read-out: Activity
[26] = system: COLO 205; test: Growth inhibition of human COLO205 cells assessed as cell growth at 100 uM incubated for 48 hrs by sulforhodamine B assay relative to control; format: functional; conditions: COLO 205, 48 h, read-out: Activity
[27] = system: SF-295; test: Growth inhibition of human SF295 cells assessed as cell growth at 100 uM incubated for 48 hrs by sulforhodamine B assay relative to control; format: functional; conditions: SF-295, 48 h, read-out: Activity
[28] = system: SNB-75; test: Growth inhibition of human SNB75 cells assessed as cell growth at 100 uM incubated for 48 hrs by sulforhodamine B assay relative to control; format: functional; conditions: SNB-75, 48 h, read-out: Activity
[29] = read-out: LC50 (the source's name)
[30] = read-out: pLC50 (the source's name) (converted)

O=C(Nc1cccc(-n2cc(-c3ccncc3)c(-c3cc(O)cc(Cl)c3)n2)c1)c1cc(C(F)(F)F)cc(C(F)(F)F)c1
growth at 10 µM [1]: 17.8% | IC50 [2]: 3.23 µM | GI50 ([2]; read-out: GI50): 3.23 µM | CC50 [2, 29]: > 100 µM | TGI ([2]; read-out: TGI): > 100 µM | GI50 ([2]; read-out: pGI50 (converted)): 3.24 µM | CC50 [2, 30]: > 100 µM | TGI ([2]; read-out: pTGI (converted)): > 100 µM | GI50 ([3]; read-out: GI50): 8.53 µM | CC50 [3, 29]: > 100 µM | TGI ([3]; read-out: TGI): > 100 µM | GI50 ([3]; read-out: pGI50 (converted)): 8.51 µM | CC50 [3, 30]: > 100 µM | TGI ([3]; read-out: pTGI (converted)): > 100 µM | GI50 ([4]; read-out: GI50): 4.77 µM | LC50 ([4]; read-out: LC50): > 100 µM | TGI ([4]; read-out: TGI): > 100 µM | GI50 ([4]; read-out: pGI50 (converted)): 4.79 µM | LC50 ([4]; read-out: pLC50 (converted)): > 100 µM | TGI ([4]; read-out: pTGI (converted)): > 100 µM | growth at 0.01 µM [5]: 103% | growth at 0.01 µM [6]: 93% | growth at 0.01 µM [7]: 100% | growth at 0.01 µM [8]: 95% | growth at 0.01 µM [9]: 58% | growth at 0.1 µM [10]: 89% | growth at 0.1 µM [11]: 95% | growth at 0.1 µM [12]: 97% | growth at 0.1 µM [13]: 54% | growth at 0.1 µM [14]: 100% | growth at 1 µM [15]: 92% | growth at 1 µM [16]: 97% | growth at 1 µM [17]: 79% | growth at 1 µM [18]: 90% | growth at 1 µM [19]: 96% | growth at 1 µM [20]: 101% | growth at 1 µM [21]: 91% | growth at 1 µM [22]: 100% | growth at 1 µM [23]: 57% | growth at 100 µM [24]: -18% | growth at 100 µM [25]: -10% | growth at 100 µM [26]: -7% | growth at 100 µM [27]: -38% | growth at 100 µM [28]: 15%
